# Measured values from PMC9252067 (Cell chemical biology, 2021).
# Legend:
# M. tuberculosis H37Rv = conditions: for EC50: M. tuberculosis growth, 1 week incubation, mean ± SD (n = 3) for JCP276, BMB034, BMB038, others single dose-response experiment (n = 1)
# [1] = tested on: BMB034-labeled proteins (serine hydrolases) of M. tuberculosis H37Rv; test: Competitive ABPP in live cells with BMB034 probe, gel-based; conditions: pre-treatment of cultures 1 h; 1 μM BMB034 labeling; JCP276 at 1 or 10 μM
SMILES,EC50 (M. tuberculosis H37Rv) [µM],competition with BMB034 labeling [1],inhibition of M. tuberculosis growth (M. tuberculosis H37Rv; negative control compound)
"C#CCCOc1oc(=O)c2cc(NC(=O)Nc3ccccc3)ccc2c1Cl [BMB034, 1-(3-(but-3-yn-1-yloxy)-4-chloro-1-oxo-1H-isochromen-7-yl)-3-phenylurea]",8.7 ± 1.1,,
"C#Cc1ccc(NC(=O)Nc2ccc3c(Cl)c(OCCCBr)oc(=O)c3c2)cc1 [BMB038, 1-(3-(3-bromopropoxy)-4-chloro-1-oxo-1H-isochromen-7-yl)-3-(4-ethynylphenyl)urea]",36 ± 11,,
"O=c1oc(Cl)c(Cl)c2ccccc12 [DCI, 3,4-dichloroisocoumarin]",,did not compete,does not inhibit M. tuberculosis growth
